Measured values: ChEMBL document CHEMBL4316627, “Modulation of the NOD-like receptors NOD1 and NOD2: A chemist's perspective” (Bioorg Med Chem Lett, 2019)
Each block holds one molecule with its values, some of them ahead of it.

Tests used:
[1] = biological target: Nucleotide-binding oligomerization domain-containing protein 2 (Homo sapiens, UniProt Q9HC29); assay: Binding affinity to human NOD2 LRR domain expressed in Escherichia coli by SPR assay
[2] = biological target: T1, Nucleotide-binding oligomerization domain-containing protein 1 (Homo sapiens, UniProt Q9Y239); assay: Binding affinity to NOD1 LRR domain (unknown origin)
T1 sequence (Q9Y239 whole entry): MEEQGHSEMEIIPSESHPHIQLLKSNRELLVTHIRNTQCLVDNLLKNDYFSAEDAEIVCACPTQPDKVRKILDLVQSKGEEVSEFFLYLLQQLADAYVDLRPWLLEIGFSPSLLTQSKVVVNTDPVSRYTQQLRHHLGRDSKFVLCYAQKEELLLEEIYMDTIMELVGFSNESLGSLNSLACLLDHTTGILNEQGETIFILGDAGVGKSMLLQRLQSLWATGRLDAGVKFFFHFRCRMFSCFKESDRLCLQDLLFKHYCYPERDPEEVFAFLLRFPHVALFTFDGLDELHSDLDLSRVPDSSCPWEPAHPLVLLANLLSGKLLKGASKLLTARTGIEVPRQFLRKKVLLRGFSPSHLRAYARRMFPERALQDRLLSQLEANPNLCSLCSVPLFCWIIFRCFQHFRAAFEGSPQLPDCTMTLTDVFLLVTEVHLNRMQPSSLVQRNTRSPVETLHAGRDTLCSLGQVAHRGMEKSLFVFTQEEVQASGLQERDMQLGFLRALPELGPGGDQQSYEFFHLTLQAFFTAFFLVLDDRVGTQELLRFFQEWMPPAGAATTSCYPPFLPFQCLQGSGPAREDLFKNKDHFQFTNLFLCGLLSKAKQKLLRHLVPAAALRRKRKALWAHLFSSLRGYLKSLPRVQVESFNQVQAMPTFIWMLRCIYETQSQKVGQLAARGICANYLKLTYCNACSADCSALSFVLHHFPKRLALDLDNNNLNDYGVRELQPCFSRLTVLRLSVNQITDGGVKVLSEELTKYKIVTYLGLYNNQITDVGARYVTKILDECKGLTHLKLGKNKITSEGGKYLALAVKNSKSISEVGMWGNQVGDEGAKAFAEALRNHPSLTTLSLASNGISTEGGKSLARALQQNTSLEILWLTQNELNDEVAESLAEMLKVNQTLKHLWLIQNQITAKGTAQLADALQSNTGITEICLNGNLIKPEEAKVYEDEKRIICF

[3] = Binding affinity to Jack bean Concanavalin A by SPR assay; parameters: species or system Canavalia ensiformis
Jacalin = biological target: T2, Jacalin (Artocarpus heterophyllus, UniProt Q38720); assay: Binding affinity to jackfruit jacalin by SPR assay
T2 sequence (Q38720 whole entry): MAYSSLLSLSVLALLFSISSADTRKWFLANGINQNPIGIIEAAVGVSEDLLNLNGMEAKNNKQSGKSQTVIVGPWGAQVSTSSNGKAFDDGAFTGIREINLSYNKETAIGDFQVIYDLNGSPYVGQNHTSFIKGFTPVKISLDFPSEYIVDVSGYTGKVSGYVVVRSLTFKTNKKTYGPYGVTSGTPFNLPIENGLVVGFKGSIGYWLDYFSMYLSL

Nucleotide-binding oligomerization domain-containing protein 2, sequence (Q9HC29 whole entry, the tested form may be a part): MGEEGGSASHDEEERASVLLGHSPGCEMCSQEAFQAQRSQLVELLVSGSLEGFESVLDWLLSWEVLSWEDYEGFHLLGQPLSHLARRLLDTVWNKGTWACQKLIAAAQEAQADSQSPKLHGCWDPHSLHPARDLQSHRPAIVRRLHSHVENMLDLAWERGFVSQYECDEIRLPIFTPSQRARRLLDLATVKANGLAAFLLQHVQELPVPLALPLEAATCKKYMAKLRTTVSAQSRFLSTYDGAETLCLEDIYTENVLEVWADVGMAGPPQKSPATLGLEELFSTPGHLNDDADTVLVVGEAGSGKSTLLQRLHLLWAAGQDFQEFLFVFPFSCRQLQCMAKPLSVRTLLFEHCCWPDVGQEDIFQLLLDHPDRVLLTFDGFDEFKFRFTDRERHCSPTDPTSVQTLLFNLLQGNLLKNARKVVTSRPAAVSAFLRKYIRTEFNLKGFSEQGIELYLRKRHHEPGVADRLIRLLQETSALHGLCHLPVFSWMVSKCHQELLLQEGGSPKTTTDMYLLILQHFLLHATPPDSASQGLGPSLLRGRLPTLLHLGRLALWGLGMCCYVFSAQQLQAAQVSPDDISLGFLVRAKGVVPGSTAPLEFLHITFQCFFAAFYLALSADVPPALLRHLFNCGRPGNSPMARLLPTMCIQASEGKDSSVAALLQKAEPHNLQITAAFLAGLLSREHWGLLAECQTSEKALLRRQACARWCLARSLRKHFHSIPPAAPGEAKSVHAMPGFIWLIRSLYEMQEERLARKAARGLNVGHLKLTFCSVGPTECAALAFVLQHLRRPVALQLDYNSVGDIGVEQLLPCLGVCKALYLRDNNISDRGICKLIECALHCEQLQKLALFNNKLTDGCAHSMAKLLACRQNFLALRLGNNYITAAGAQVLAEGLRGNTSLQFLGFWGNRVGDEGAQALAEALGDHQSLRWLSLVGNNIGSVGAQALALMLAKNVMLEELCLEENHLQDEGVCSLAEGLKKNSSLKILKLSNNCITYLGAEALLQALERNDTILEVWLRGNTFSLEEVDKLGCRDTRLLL

Kd [1]: 0.2 µM
SMILES: CC(=O)N[C@H]1C(O)O[C@H](CO)[C@@H](O)[C@@H]1O[C@H](C)C(=O)N[C@@H](C)C(=O)N[C@H](CCC(=O)O)C(N)=O (some centres undefined) [MURAMYL DIPEPTIDE]

Kd [2]: 35 µM
SMILES: C[C@H](N)C(=O)N[C@H](CCC(=O)N[C@@H](CCC[C@@H](N)C(=O)O)C(=O)O)C(N)=O

Kd [3]: 200 µM
SMILES: OC[C@H]1OC(O)[C@@H](O)[C@@H](O)[C@@H]1O (stereo partly drawn) [D-MANNOSE]

Kd (Jacalin): 16 µM
SMILES: O=C[C@H](O)[C@@H](O)[C@@H](O)[C@H](O)CO [GALACTOSE]
